Measurements published in patent US20160158200A1, “Combinations of Hepatitis C Virus Inhibitors” (priority 2013, published 2016).

The molecules below were run on HCV genotype-1a variant with glutamine 30 changed to glutamate in the NS5A protein. Conditions: test compound titrated with BMS-790052 fixed at 200 nM; genotype 1a Q30E replicon.
Assay type: cell-based
Outline: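 Synergy was assessed by combining several fixed amounts of an NS5A-targeting compound with a titration of the second compound of interest.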
For `CC(C)(C(=O)N[C@H](c1nc(-c2ccc(-c3ccc(-c4c[nH]c([C@@H](NC(=O)C(C)(C)C(O)C5CCC(F)(F)CC5)C(C)(C)C)n4)cc3)cc2)c[nH]1)C(C)(C)C)C(O)C1CCC(F)(F)CC1` (single isomer, unassigned) [Compound N-143B], the “Fold-Synergistic 1a (Q30E)” value was >100 fold. `CC(C)(C)C(=O)N[C@H](c1nc(-c2ccc(-c3ccc(-c4c[nH]c([C@@H](NC(=O)C(C)(C)C)C(C)(C)CO)n4)cc3)cc2)c[nH]1)C(C)(C)CO` [Compound N-110] was tested, and the “Fold-Synergistic 1a (Q30E)” value was >100 fold. In the case of `CC(C)(C)[C@H](NC(=O)[C@](C)(O)c1ccccc1)c1nc(-c2ccc(-c3ccc(-c4c[nH]c([C@@H](NC(=O)[C@](C)(O)c5ccccc5)C(C)(C)C)n4)cc3)cc2)c[nH]1` [Compound L-94], the “Fold-Synergistic 1a (Q30E)” value is reported as >100 fold. `CC(C)[C@H](NC(=O)C1(C(C)O)CC1)c1ncc(-c2ccc(-c3ccc(-c4cnc([C@@H](NC(=O)C5(C(C)O)CC5)C(C)C)n4C)cc3)cc2)n1C` (single isomer, unassigned) [Compound B-202] was tested, and the “Fold-Synergistic 1a (Q30E)” value was >10 fold. In the case of `CC(C)[C@H](NC(=O)OCc1ccccc1)c1ncc(-c2ccc(-c3ccc(-c4cnc([C@@H](NC(=O)OCc5ccccc5)C(C)C)[nH]4)cc3)cc2)[nH]1` [Compound S-215], the “Fold-Synergistic 1a (Q30E)” value is reported as >100 fold. With `COC(=O)N(C)C(C)(C)C(=O)N[C@H](c1nc(-c2ccc(-c3ccc(-c4c[nH]c([C@@H](NC(=O)C(C)(C)N(C)C(=O)OC)C(C)(C)C)n4)cc3)cc2)c[nH]1)C(C)(C)C` [Compound L-18] the “Fold-Synergistic 1a (Q30E)” value was >100 fold. For `CC(C)[C@H](NC(=O)Cc1ccccc1Cl)c1ncc(-c2ccc(-c3ccc(-c4cnc([C@@H](NC(=O)Cc5ccccc5Cl)C(C)C)[nH]4)cc3)cc2)[nH]1` [Compound S-38], the “Fold-Synergistic 1a (Q30E)” value was >100 fold. With `CC(C)(C)[C@H](NC(=O)c1ccccc1F)c1nc(-c2ccc(-c3ccc(-c4c[nH]c([C@@H](NC(=O)c5ccccc5F)C(C)(C)C)n4)cc3)cc2)c[nH]1` [Compound P-23] the “Fold-Synergistic 1a (Q30E)” value was >100 fold. `CC(C)[C@H](NC(=O)Cc1cccc2ccccc12)c1ncc(-c2ccc(-c3ccc(-c4cnc([C@@H](NC(=O)Cc5cccc6ccccc56)C(C)C)[nH]4)cc3)cc2)[nH]1` [Compound S-9] was tested, and the “Fold-Synergistic 1a (Q30E)” value was >10 fold. `CC(C)(C)[C@H](NC(=O)C1CCC(F)(F)CC1)c1nc2ccc(C#CC#Cc3ccc4nc([C@@H](NC(=O)C5CCC(F)(F)CC5)C(C)(C)C)[nH]c4c3)cc2[nH]1` [Compound B46] was tested, and the “Fold-Synergistic 1a (Q30E)” value was >100 fold. `CC(C)[C@H](NC(=O)[C@@H]1CCCCO1)c1ncc(-c2ccc(-c3ccc(-c4cnc([C@@H](NC(=O)[C@H]5CCCCO5)C(C)C)[nH]4)cc3)cc2)[nH]1` [Compound Y-56] was tested, and the “Fold-Synergistic 1a (Q30E)” value was >100 fold. For `CC(C)[C@H](NC(=O)c1cccc2c1OCC2)c1ncc(-c2ccc(-c3ccc(-c4cnc([C@@H](NC(=O)c5cccc6c5OCC6)C(C)C)[nH]4)cc3)cc2)[nH]1` [Compound S-55], the “Fold-Synergistic 1a (Q30E)” value was >100 fold. For `CC(C)(C)[C@H](NC(=O)C1CCC(F)(F)CC1)c1nc2c([nH]1)-c1ccc(-c3ccc4c(ccc5nc([C@@H](NC(=O)C6CCC(F)(F)CC6)C(C)(C)C)[nH]c54)c3)cc1CC2` [Compound B24], the “Fold-Synergistic 1a (Q30E)” value was >100 fold. In the case of `CC(C)(C)[C@H](NC(=O)C1(O)CCC(F)(F)CC1)c1nc(-c2ccc(-c3ccc(-c4c[nH]c([C@@H](NC(=O)C5(O)CCC(F)(F)CC5)C(C)(C)C)n4)cc3)cc2)c[nH]1` [Compound P-33], the “Fold-Synergistic 1a (Q30E)” value is reported as >100 fold. `CC(C)[C@H](NC(=O)c1ccc(Cl)cc1F)c1ncc(-c2ccc(-c3ccc(-c4cnc([C@@H](NC(=O)c5ccc(Cl)cc5F)C(C)C)[nH]4)cc3)cc2)[nH]1` [Compound S-93] was tested, and the “Fold-Synergistic 1a (Q30E)” value was >100 fold. With `CC(C)[C@H](NC(=O)C1(C(F)(F)F)CCCC1)c1ncc(-c2ccc(-c3ccc(-c4cnc([C@@H](NC(=O)C5(C(F)(F)F)CCCC5)C(C)C)[nH]4)cc3)cc2)[nH]1` [Compound P-80] the “Fold-Synergistic 1a (Q30E)” value was >100 fold. `CC(C)[C@H](NC(=O)Cc1cccs1)c1ncc(-c2ccc(-c3ccc(-c4cnc([C@@H](NC(=O)Cc5cccs5)C(C)C)[nH]4)cc3)cc2)[nH]1` [Compound P-78] was tested, and the “Fold-Synergistic 1a (Q30E)” value was >100 fold. With `CC1(C)CC1C(=O)N[C@H](c1ncc(-c2ccc(-c3ccc(-c4cnc([C@@H](NC(=O)C5CC5(C)C)C(C)(C)C)[nH]4)cc3)cc2)[nH]1)C(C)(C)C` (single isomer, unassigned) [Compound B80] the “Fold-Synergistic 1a (Q30E)” value was >100 fold. For `CC(C)(C)[C@H](NC(=O)[C@H]1C[C@@H]2CC(F)(F)C[C@@H]2C1)c1nc(-c2ccc(-c3ccc(-c4c[nH]c([C@@H](NC(=O)[C@H]5C[C@@H]6CC(F)(F)C[C@@H]6C5)C(C)(C)C)n4)cc3)cc2)c[nH]1` [Compound P-42], the “Fold-Synergistic 1a (Q30E)” value was >100 fold. `COC(C)(C)C(=O)N[C@H](c1nc(-c2ccc(-c3ccc(-c4c[nH]c([C@@H](NC(=O)C(C)(C)OC)C(C)(C)C)n4)c(F)c3)cc2)c[nH]1)C(C)(C)C.O=C(O)C(F)(F)F` [Compound N-94] was tested, and the “Fold-Synergistic 1a (Q30E)” value was >100 fold. In the case of `CCNC(=O)NC1(C(=O)N[C@H](c2nc(-c3ccc(-c4ccc(-c5c[nH]c([C@@H](NC(=O)C6(NC(=O)NCC)CCCCC6)C(C)(C)C)n5)cc4)cc3)c[nH]2)C(C)(C)C)CCCCC1` [Compound W-251], the “Fold-Synergistic 1a (Q30E)” value is reported as >100 fold. For `CC(C)(C)[C@H](NC(=O)C1(CF)CCC(F)(F)CC1)c1nc(-c2ccc(-c3ccc(-c4c[nH]c([C@@H](NC(=O)C5(CF)CCC(F)(F)CC5)C(C)(C)C)n4)cc3)cc2)c[nH]1` [Compound P-38], the “Fold-Synergistic 1a (Q30E)” value was >100 fold. With `CC(C)[C@H](NC(=O)CC1CCOCC1)c1ncc(-c2ccc(-c3ccc(-c4cnc([C@@H](NC(=O)CC5CCOCC5)C(C)C)[nH]4)cc3)cc2)[nH]1` [Compound P-58] the “Fold-Synergistic 1a (Q30E)” value was >10 fold. In the case of `CC1(C)C2CCC(C(=O)N[C@H](c3nc(-c4ccc(-c5ccc(-c6c[nH]c([C@@H](NC(=O)C78CCC(C7)C(C)(C)C8O)C7(C)CC7)n6)cc5)cc4)c[nH]3)C3(C)CC3)(C2)C1O` (single isomer, unassigned) [Compound Y-118], the “Fold-Synergistic 1a (Q30E)” value is reported as >100 fold. With `CC(C)[C@H](NC(=O)C1CCOCC1)c1ncc(-c2ccc(-c3ccc(-c4cnc([C@@H](NC(=O)C5CCOCC5)C(C)C)[nH]4)cc3)cc2)[nH]1` [Compound P-59] the “Fold-Synergistic 1a (Q30E)” value was >100 fold. `CC1(C(NC(=O)C(C)(C)C(O)C2CC(F)(F)C2)c2nc(-c3ccc(-c4ccc(-c5c[nH]c(C(NC(=O)C(C)(C)C(O)C6CC(F)(F)C6)C6(C)CC6)n5)cc4)cc3)c[nH]2)CC1` (mixture of isomers) [Compound N-157] was tested, and the “Fold-Synergistic 1a (Q30E)” value was >100 fold. For `CCOc1ccccc1C(=O)N[C@H](c1nc(-c2ccc(-c3ccc(-c4c[nH]c([C@@H](NC(=O)c5ccccc5OCC)C(C)(C)C)n4)cc3)cc2)c[nH]1)C(C)(C)C` [Compound P-29], the “Fold-Synergistic 1a (Q30E)” value was >100 fold. For `CC(C)(C)[C@H](NC(=O)C1CCC(F)(F)CC1)c1ncc(-c2ccc3cc(-c4ccc5nc([C@@H](NC(=O)C6CCC(F)(F)CC6)C(C)(C)C)[nH]c5c4)ccc3c2)[nH]1` [Compound B53], the “Fold-Synergistic 1a (Q30E)” value was >100 fold. For `CC(C)(Oc1ccccc1F)C(=O)N[C@H](c1nc(-c2ccc(-c3ccc(-c4c[nH]c([C@@H](NC(=O)C(C)(C)Oc5ccccc5F)C(C)(C)C)n4)cc3)cc2)c[nH]1)C(C)(C)C` [Compound Y-4], the “Fold-Synergistic 1a (Q30E)” value was >100 fold. For `CC(C)(C)[C@H](NC(=O)C(=O)N1CC(F)(F)C1)c1nc(-c2ccc(-c3ccc(-c4c[nH]c([C@@H](NC(=O)C(=O)N5CC(F)(F)C5)C(C)(C)C)n4)cc3)cc2)c[nH]1` [Compound W-28], the “Fold-Synergistic 1a (Q30E)” value was >100 fold. `CC(C)[C@H](NC(=O)c1nn(C)c2ccccc12)c1ncc(-c2ccc(-c3ccc(-c4cnc([C@@H](NC(=O)c5nn(C)c6ccccc56)C(C)C)[nH]4)cc3)cc2)[nH]1` [Compound P-96] was tested, and the “Fold-Synergistic 1a (Q30E)” value was >100 fold. With `CC(C)C(NC(=O)C(=O)N1CCCCCC1)c1nc(-c2ccc(-c3ccc(-c4c[nH]c(C(NC(=O)C(=O)N5CCCCCC5)C(C)C)n4)cc3)cc2)c[nH]1` (centres unmarked) [Compound W-52] the “Fold-Synergistic 1a (Q30E)” value was >100 fold. In the case of `CC(C)(C)C(=O)N[C@H](c1nc(-c2ccc(-c3ccc(-c4c[nH]c([C@@H](NC(=O)C(C)(C)C)C(C)(C)C)n4)cc3)cc2)c[nH]1)C(C)(C)C` [Compound N-46], the “Fold-Synergistic 1a (Q30E)” value is reported as >100 fold. For `CC(C)(C)[C@H](NC(=O)C1CC12CCC2)c1nc(-c2ccc(-c3ccc(-c4cnc([C@@H](NC(=O)C5CC56CCC6)C(C)(C)C)[nH]4)cc3)cc2)c[nH]1` (some centres unmarked) [Compound B-183], the “Fold-Synergistic 1a (Q30E)” value was >100 fold. In the case of `C[C@H](C(=O)N[C@H](c1nc(-c2ccc(-c3ccc(-c4c[nH]c([C@@H](NC(=O)[C@@H](C)c5ccccc5)C(C)(C)C)n4)cc3)cc2)c[nH]1)C(C)(C)C)c1ccccc1` [Compound N-60], the “Fold-Synergistic 1a (Q30E)” value is reported as >100 fold. `CC(C)[C@H](NC(=O)CC(F)(F)F)c1ncc(-c2ccc(-c3ccc(-c4cnc([C@@H](NC(=O)CC(F)(F)F)C(C)C)[nH]4)cc3)cc2)[nH]1` [Compound S-53] was tested, and the “Fold-Synergistic 1a (Q30E)” value was >100 fold. With `CC(C)C(NC(=O)C(=O)N1CCC(C(F)(F)F)CC1)c1nc(-c2ccc(-c3ccc(-c4c[nH]c(C(NC(=O)C(=O)N5CCC(C(F)(F)F)CC5)C(C)C)n4)cc3)cc2)c[nH]1` (centres unmarked) [Compound W-53] the “Fold-Synergistic 1a (Q30E)” value was >100 fold. `O=C(N1CCC(F)(F)CC1)N1CCC[C@H]1c1ncc(-c2ccc(-c3ccc(-c4cnc([C@@H]5CCCN5C(=O)N5CCC(F)(F)CC5)[nH]4)cc3)cc2)[nH]1` [Compound P-131] was tested, and the “Fold-Synergistic 1a (Q30E)” value was >100 fold. With `COc1cccc(C(=O)N[C@H](c2ncc(-c3ccc(-c4ccc(-c5cnc([C@@H](NC(=O)c6cccc(OC)c6)C(C)C)[nH]5)cc4)cc3)[nH]2)C(C)C)c1` [Compound S-77] the “Fold-Synergistic 1a (Q30E)” value was >100 fold. In the case of `CC1CN(C(=O)C(=O)N[C@H](c2nc(-c3ccc(-c4ccc(-c5c[nH]c([C@@H](NC(=O)C(=O)N6CC(C)OC(C)C6)C(C)(C)C)n5)cc4)cc3)c[nH]2)C(C)(C)C)CC(C)O1` (single isomer, unassigned) [Compound W-40B], the “Fold-Synergistic 1a (Q30E)” value is reported as >100 fold. For `CC(C)COC(=O)N[C@@H](C(=O)N[C@H](c1ncc(-c2ccc(-c3ccc(-c4cnc([C@@H](NC(=O)[C@H](NC(=O)OCC(C)C)C(C)C)C(C)C)[nH]4)cc3)cc2)[nH]1)C(C)C)C(C)C` [Compound S-246], the “Fold-Synergistic 1a (Q30E)” value was >100 fold.
